From ChEMBL document CHEMBL3351633, “Anithiactins A-C, modified 2-phenylthiazoles from a mudflat-derived Streptomyces sp” (J Nat Prod, 2014)
Calls of active or inactive are those of the source. No cut-off for these calls is given here.

What was measured:
[1] = target: Acetylcholinesterase (Homo sapiens, UniProt P22303); experiment: Inhibition of AChE (unknown origin) assessed as inhibition of acetylcholine hydrolysis preincubated for 15 mins by Ellman method
[2] = test system: A498; experiment: Cytotoxicity against human A498 cells up to 200 uM by modified MTT assay; format: functional, cell-based
[3] = test system: ACHN; experiment: Cytotoxicity against human ACHN cells up to 200 uM by modified MTT assay; format: functional, cell-based

Chain of Acetylcholinesterase (P22303 whole entry): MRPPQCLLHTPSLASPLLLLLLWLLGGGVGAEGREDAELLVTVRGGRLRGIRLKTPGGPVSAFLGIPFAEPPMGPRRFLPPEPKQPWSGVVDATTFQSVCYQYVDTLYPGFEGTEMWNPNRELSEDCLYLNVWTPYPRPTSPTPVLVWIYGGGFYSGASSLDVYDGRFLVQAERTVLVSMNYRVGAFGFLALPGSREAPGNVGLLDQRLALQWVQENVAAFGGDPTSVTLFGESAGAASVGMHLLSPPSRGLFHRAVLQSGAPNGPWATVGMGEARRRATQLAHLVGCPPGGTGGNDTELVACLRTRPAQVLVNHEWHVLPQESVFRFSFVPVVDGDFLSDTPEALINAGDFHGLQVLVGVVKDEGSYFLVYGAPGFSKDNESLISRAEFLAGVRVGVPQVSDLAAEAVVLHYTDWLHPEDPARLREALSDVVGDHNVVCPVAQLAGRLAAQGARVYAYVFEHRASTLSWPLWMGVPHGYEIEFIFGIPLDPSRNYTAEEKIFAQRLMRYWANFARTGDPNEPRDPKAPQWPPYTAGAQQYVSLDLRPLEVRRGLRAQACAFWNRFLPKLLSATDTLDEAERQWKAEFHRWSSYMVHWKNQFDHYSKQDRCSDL

CNc1ccccc1-c1nc(C(=O)OC)cs1 was tested, and the IC50 [1] was 63 µM, the Activity [2] was “inactive” and the Activity [3] was “inactive”.

With CNc1ccccc1-c1nc(C(N)=O)cs1 the IC50 [1] was 53 µM, the Activity [2] was “inactive” and the Activity [3] was “inactive”.

For CNc1ccccc1-c1nc(C(=O)O)cs1, the IC50 [1] was 68 µM, the Activity [2] was “inactive” and the Activity [3] was “inactive”.
